# US20090036498A1, “FLY CONTROL METHOD” (priority 2007, published 2009)
# Experiments:
# [1] = tested on: Newly emerged larvae of blowfly, Lucilica sericata; experiment: Blowfly larvae on filter paper discs with test compound mixed in dried blood bovine serum, mortality; assay type: in vivo; details: Lucilia sericata, assessed at 24 hours, four replicates per data point
# Procedure: L. serricata (Insect; Blowfly) Larvae.
# Test compound (3-bromo-1-(3-chloro-2-pyridinyl)-N-[4-cyano-2-methyl-6-[(methylamino)-carbonyl]phenyl]-1H-pyrazole-5-carboxamide) was mixed with dried blood bovine serum and placed on filter paper discs. Newly emerged larvae of blowfly, Lucilica sericata were added to the filter paper, which were ingested by larvae. Activity may occur through both feeding and contact. Four replicates were run per data point. Activity was assessed at 24 hours.
# [2] = tested on: Adult L. serricata (blowflies); experiment: Test A: adult blowflies on blood agar containing test compound, number of dead flies scored; assay type: in vivo, Lucilia sericata; details: 4 flies in test; for Number dead flies at 2 hours: scored at 2 hours; for Number dead flies at 4 hours: scored at 4 hours; for Number dead flies at 24 hours: scored at 24 hours
# Procedure: Adult L. serricata (blowflies): Adult flies are placed on beds of blood agar (in individual test wells; 4 flies per well) in which test compound (3-bromo-1-(3-chloro-2-pyridinyl)-N-[4-cyano-2-methyl-6-[(methylamino)carbonyl]phenyl]-1H-pyrazole-5-carboxamide) was dissolved/suspended prior to hardening of agar. Flies can take up test compound by both ingestion and contact. Assays are scored by number of dead flies at 2 hours, 4 hours, and 24 hours.
SMILES,mortality at 0.5 ppm [1] [%],Number dead flies at 2 hours ([2]; Rate 1 ppm in blood agar),Number dead flies at 4 hours ([2]; Rate 1 ppm in blood agar),Number dead flies at 24 hours ([2]; Rate 1 ppm in blood agar),Number dead flies at 2 hours ([2]; Rate 10 ppm in blood agar),Number dead flies at 4 hours ([2]; Rate 10 ppm in blood agar),Number dead flies at 24 hours ([2]; Rate 10 ppm in blood agar),Number dead flies at 2 hours ([2]; Rate 25 ppm in blood agar),Number dead flies at 4 hours ([2]; Rate 25 ppm in blood agar),Number dead flies at 24 hours ([2]; Rate 25 ppm in blood agar),Number dead flies at 2 hours ([2]; Rate 50 ppm in blood agar),Number dead flies at 4 hours ([2]; Rate 50 ppm in blood agar),Number dead flies at 24 hours ([2]; Rate 50 ppm in blood agar),Number dead flies at 2 hours ([2]; Rate 100 ppm in blood agar),Number dead flies at 4 hours ([2]; Rate 100 ppm in blood agar),Number dead flies at 24 hours ([2]; Rate 100 ppm in blood agar)
"N#Cc1nn(-c2c(Cl)cc(C(F)(F)F)cc2Cl)c(N)c1[S+]([O-])C(F)(F)F (stereo not drawn) [Fipronil, (.+−.)-5-amino-1-(2,6-dichloro-α,α,α-triflu-oro-p-tolyl)-4-trifluoromethyl-sulphinylpyrazol-3-carbonitrile, reference compound]",90 to 100,,,,,,,,,,,,,,,
CCOP(=S)(OCC)Oc1nc(Cl)c(Cl)cc1Cl [Chloropyriphos],,0,1,4,1,4,4,3,4,4,4,4,4,4,4,4
"CNC(=O)c1cc(C#N)cc(C)c1NC(=O)c1cc(Br)nn1-c1ncccc1Cl [Test compound, 3-bromo-1-(3-chloro-2-pyridinyl)-N-[4-cyano-2-methyl-6-[(methylamino)-carbonyl]phenyl]-1H-pyrazole-5-carboxamide]",90 to 100,0,0,0,0,0,1,0,0,2,0,0,3,0,0,3
